Source: the supplement of paper PMC13380429
± gives the standard deviation of the averaged measurements.

Key:
Settings in all cases: 72 h
[1] = tested on: Calu-3; assay: drug sensitivity score (DSS) for viability; higher = more toxic; extreme values may be limits of the assay
[2] = tested on: U2OS; assay: as above
[3] = tested on: Caco-2; assay: as above
[4] = tested on: HepG2; assay: as above
[5] = tested on: Vero E6; assay: as above
[6] = tested on: Calu-3; assay: cell viability relative to DMSO; higher = less toxic
[7] = tested on: U2OS; assay: as above
[8] = tested on: Caco-2; assay: as above
[9] = tested on: HepG2; assay: as above
[10] = tested on: Vero E6; assay: as above
[11] = tested on: Calu-3; assay: relative viability EC50 (midpoint between 100% and the lowest measured viability); higher = less toxic
[12] = tested on: U2OS; assay: as above
[13] = tested on: Caco-2; assay: as above
[14] = tested on: HepG2; assay: as above
[15] = tested on: Vero E6; assay: as above

CCNC(C)CN1CCc2c(c(=O)oc3ccccc23)C1 (stereo not given) [CI-923]
drug sensitivity score [1]: 0 | drug sensitivity score [2]: 0 | drug sensitivity score [3]: 0 | drug sensitivity score [4]: 0 | drug sensitivity score [5]: 0 | cell viability ([6]; 1 nM): 99.5% | cell viability ([6]; 10 nM): 109% | cell viability ([6]; 100 nM): 100% | cell viability ([6]; 1000 nM): 111% | cell viability ([6]; 10000 nM): 99.1% | cell viability ([7]; 1 nM): 99% | cell viability ([7]; 10 nM): 99.3% | cell viability ([7]; 100 nM): 95.9% | cell viability ([7]; 1000 nM): 101% | cell viability ([7]; 10000 nM): 95.8% | cell viability ([8]; 1 nM): 103% | cell viability ([8]; 10 nM): 102% | cell viability ([8]; 100 nM): 103% | cell viability ([8]; 1000 nM): 97.9% | cell viability ([8]; 10000 nM): 93.6% | cell viability ([9]; 1 nM): 99.6% | cell viability ([9]; 10 nM): 93.1% | cell viability ([9]; 100 nM): 105% | cell viability ([9]; 1000 nM): 97.5% | cell viability ([9]; 10000 nM): 109% | cell viability ([10]; 1 nM): 99.7% | cell viability ([10]; 10 nM): 103% | cell viability ([10]; 100 nM): 104% | cell viability ([10]; 1000 nM): 95.9% | cell viability ([10]; 10000 nM): 94.5% | relative viability EC50 [11]: > 10 µM | relative viability EC50 [12]: > 10 µM | relative viability EC50 [13]: > 10 µM | relative viability EC50 [14]: > 10 µM | relative viability EC50 [15]: > 10 µM

C[C@]12CCC(=O)C=C1C=C[C@@H]1[C@@H]2CC[C@@]2(C)[C@H]1CC[C@@]21CCC(=O)O1 [canrenone]
drug sensitivity score [1]: 0 | drug sensitivity score [2]: 0 | drug sensitivity score [3]: 0 | drug sensitivity score [4]: 0 | drug sensitivity score [5]: 0 | cell viability ([6]; 1 nM): 102% | cell viability ([6]; 10 nM): 111% | cell viability ([6]; 100 nM): 98.5% | cell viability ([6]; 1000 nM): 104% | cell viability ([6]; 10000 nM): 95% | cell viability ([7]; 1 nM): 101% | cell viability ([7]; 10 nM): 101% | cell viability ([7]; 100 nM): 93.2% | cell viability ([7]; 1000 nM): 106% | cell viability ([7]; 10000 nM): 95.8% | cell viability ([8]; 1 nM): 96.6% | cell viability ([8]; 10 nM): 100% | cell viability ([8]; 100 nM): 88.4% | cell viability ([8]; 1000 nM): 99.1% | cell viability ([8]; 10000 nM): 91.7% | cell viability ([9]; 1 nM): 106% | cell viability ([9]; 10 nM): 94.5% | cell viability ([9]; 100 nM): 89.1% | cell viability ([9]; 1000 nM): 95.4% | cell viability ([9]; 10000 nM): 97.5% | cell viability ([10]; 1 nM): 99.3% | cell viability ([10]; 10 nM): 106% | cell viability ([10]; 100 nM): 101% | cell viability ([10]; 1000 nM): 104% | cell viability ([10]; 10000 nM): 101% | relative viability EC50 [11]: > 10 µM | relative viability EC50 [12]: > 10 µM | relative viability EC50 [13]: > 10 µM | relative viability EC50 [14]: > 10 µM | relative viability EC50 [15]: > 10 µM

CCCN1CCCC(c2cccc(O)c2)C1 (stereo in doubt) [preclamol]
drug sensitivity score [1]: 0 | drug sensitivity score [2]: 0 | drug sensitivity score [3]: 0 | drug sensitivity score [4]: 0 | drug sensitivity score [5]: 0 | cell viability ([6]; 1 nM): 110% | cell viability ([6]; 10 nM): 110% | cell viability ([6]; 100 nM): 112% | cell viability ([6]; 1000 nM): 93.5% | cell viability ([6]; 10000 nM): 99.6% | cell viability ([7]; 1 nM): 102% | cell viability ([7]; 10 nM): 103% | cell viability ([7]; 100 nM): 102% | cell viability ([7]; 1000 nM): 99.1% | cell viability ([7]; 10000 nM): 101% | cell viability ([8]; 1 nM): 107% | cell viability ([8]; 10 nM): 94.9% | cell viability ([8]; 100 nM): 106% | cell viability ([8]; 1000 nM): 93.1% | cell viability ([8]; 10000 nM): 99.6% | cell viability ([9]; 1 nM): 95.6% | cell viability ([9]; 10 nM): 110% | cell viability ([9]; 100 nM): 107% | cell viability ([9]; 1000 nM): 112% | cell viability ([9]; 10000 nM): 99.6% | cell viability ([10]; 1 nM): 90.5% | cell viability ([10]; 10 nM): 99.2% | cell viability ([10]; 100 nM): 95.1% | cell viability ([10]; 1000 nM): 98.3% | cell viability ([10]; 10000 nM): 91.8% | relative viability EC50 [11]: > 10 µM | relative viability EC50 [12]: > 10 µM | relative viability EC50 [13]: > 10 µM | relative viability EC50 [14]: > 10 µM | relative viability EC50 [15]: > 10 µM

O=C(/C=C/c1ccc(CN(CCO)CCc2c[nH]c3ccccc23)cc1)NO [dacinostat]
drug sensitivity score [1]: 21.5 | drug sensitivity score [2]: 22.6 | drug sensitivity score [3]: 25.2 | drug sensitivity score [4]: 28.4 | drug sensitivity score [5]: 24.4 | cell viability ([6]; 1 nM): 98.7% | cell viability ([6]; 10 nM): 90.1% | cell viability ([6]; 100 nM): 56.5% | cell viability ([6]; 1000 nM): 11.3% | cell viability ([6]; 10000 nM): 5.5% | cell viability ([7]; 1 nM): 98.1% | cell viability ([7]; 10 nM): 101% | cell viability ([7]; 100 nM): 66.4% | cell viability ([7]; 1000 nM): 1.3% | cell viability ([7]; 10000 nM): 0.5% | cell viability ([8]; 1 nM): 96.5% | cell viability ([8]; 10 nM): 101% | cell viability ([8]; 100 nM): 38.7% | cell viability ([8]; 1000 nM): 0.3% | cell viability ([8]; 10000 nM): 0.8% | cell viability ([9]; 1 nM): 104% | cell viability ([9]; 10 nM): 82% | cell viability ([9]; 100 nM): 26.1% | cell viability ([9]; 1000 nM): -0.4% | cell viability ([9]; 10000 nM): -0.4% | cell viability ([10]; 1 nM): 108% | cell viability ([10]; 10 nM): 103% | cell viability ([10]; 100 nM): 47.8% | cell viability ([10]; 1000 nM): -0.4% | cell viability ([10]; 10000 nM): -0.3% | relative viability EC50 [11]: 0.109 µM | relative viability EC50 [12]: 0.131 µM | relative viability EC50 [13]: 0.083 µM | relative viability EC50 [14]: 0.0395 µM | relative viability EC50 [15]: 0.0966 µM

COc1ccc(-c2ccc3ncc4c(c3c2)n(-c2ccc(N3CCNCC3)c(C(F)(F)F)c2)c(=O)n4C)cn1 [BGT226]
drug sensitivity score [1]: 28.4 | drug sensitivity score [2]: 29.8 | drug sensitivity score [3]: 26.8 | drug sensitivity score [4]: 22.8 | drug sensitivity score [5]: 21 | cell viability ([6]; 1 nM): 110% | cell viability ([6]; 10 nM): 58.3% | cell viability ([6]; 100 nM): 29.6% | cell viability ([6]; 1000 nM): 23.2% | cell viability ([6]; 10000 nM): 0% | cell viability ([7]; 1 nM): 101% | cell viability ([7]; 10 nM): 74.2% | cell viability ([7]; 100 nM): 22.8% | cell viability ([7]; 1000 nM): 0.1% | cell viability ([7]; 10000 nM): -0.2% | cell viability ([8]; 1 nM): 88.6% | cell viability ([8]; 10 nM): 69% | cell viability ([8]; 100 nM): 35.8% | cell viability ([8]; 1000 nM): 19.3% | cell viability ([8]; 10000 nM): 0.6% | cell viability ([9]; 1 nM): 110% | cell viability ([9]; 10 nM): 91.5% | cell viability ([9]; 100 nM): 50.8% | cell viability ([9]; 1000 nM): 11.5% | cell viability ([9]; 10000 nM): -0.3% | cell viability ([10]; 1 nM): 98% | cell viability ([10]; 10 nM): 93.9% | cell viability ([10]; 100 nM): 52.2% | cell viability ([10]; 1000 nM): 22.2% | cell viability ([10]; 10000 nM): -0.2% | relative viability EC50 [11]: 0.0321 µM | relative viability EC50 [12]: 0.0293 µM | relative viability EC50 [13]: 0.0397 µM | relative viability EC50 [14]: 0.107 µM | relative viability EC50 [15]: 0.14 µM

CCC(CC)n1ccc2c(C(=O)NCc3c(C)cc(C)[nH]c3=O)cc(C#N)cc21 [EI1]
drug sensitivity score [1]: 0 | drug sensitivity score [2]: 0 | drug sensitivity score [3]: 0 | drug sensitivity score [4]: 0 | drug sensitivity score [5]: 0 | cell viability ([6]; 1 nM): 94.2% | cell viability ([6]; 10 nM): 96.6% | cell viability ([6]; 100 nM): 101% | cell viability ([6]; 1000 nM): 109% | cell viability ([6]; 10000 nM): 102% | cell viability ([7]; 1 nM): 98.7% | cell viability ([7]; 10 nM): 99.4% | cell viability ([7]; 100 nM): 93.8% | cell viability ([7]; 1000 nM): 96.1% | cell viability ([7]; 10000 nM): 101% | cell viability ([8]; 1 nM): 105% | cell viability ([8]; 10 nM): 95.1% | cell viability ([8]; 100 nM): 97.2% | cell viability ([8]; 1000 nM): 95.4% | cell viability ([8]; 10000 nM): 93.6% | cell viability ([9]; 1 nM): 90.7% | cell viability ([9]; 10 nM): 92.3% | cell viability ([9]; 100 nM): 101% | cell viability ([9]; 1000 nM): 93.7% | cell viability ([9]; 10000 nM): 97.6% | cell viability ([10]; 1 nM): 105% | cell viability ([10]; 10 nM): 100% | cell viability ([10]; 100 nM): 107% | cell viability ([10]; 1000 nM): 97.5% | cell viability ([10]; 10000 nM): 104% | relative viability EC50 [11]: > 10 µM | relative viability EC50 [12]: > 10 µM | relative viability EC50 [13]: > 10 µM | relative viability EC50 [14]: > 10 µM | relative viability EC50 [15]: > 10 µM

N[C@@H](C(=O)O)c1ccc(C(=O)O)c(C(=O)O)c1 (racemic) [3,4-DCPG-(+/-)]
drug sensitivity score [1]: 0 | drug sensitivity score [2]: 0 | drug sensitivity score [3]: 0 | drug sensitivity score [4]: 0 | drug sensitivity score [5]: 0 | cell viability ([6]; 1 nM): 93.4 ± 4.4% | cell viability ([6]; 10 nM): 99.8 ± 2.7% | cell viability ([6]; 100 nM): 95.7 ± 3.2% | cell viability ([6]; 1000 nM): 93 ± 1.3% | cell viability ([6]; 10000 nM): 95.3 ± 1.3% | cell viability ([7]; 1 nM): 99.5 ± 2.4% | cell viability ([7]; 10 nM): 95.4 ± 0.42% | cell viability ([7]; 100 nM): 103% | cell viability ([7]; 1000 nM): 97.6 ± 3.8% | cell viability ([7]; 10000 nM): 100 ± 3.4% | cell viability ([8]; 1 nM): 101 ± 5.2% | cell viability ([8]; 10 nM): 94.9 ± 2.8% | cell viability ([8]; 100 nM): 103 ± 3.2% | cell viability ([8]; 1000 nM): 96.6 ± 9.6% | cell viability ([8]; 10000 nM): 97.4 ± 2.9% | cell viability ([9]; 1 nM): 88.3 ± 15% | cell viability ([9]; 10 nM): 99.2 ± 3.1% | cell viability ([9]; 100 nM): 89.5 ± 20% | cell viability ([9]; 1000 nM): 102 ± 6.3% | cell viability ([9]; 10000 nM): 97.7 ± 20% | cell viability ([10]; 1 nM): 96.8 ± 6% | cell viability ([10]; 10 nM): 101 ± 3.4% | cell viability ([10]; 100 nM): 96 ± 2.5% | cell viability ([10]; 1000 nM): 100 ± 3.2% | cell viability ([10]; 10000 nM): 105 ± 4.1% | relative viability EC50 [11]: > 10 µM | relative viability EC50 [12]: > 10 µM | relative viability EC50 [13]: > 10 µM | relative viability EC50 [14]: > 10 µM | relative viability EC50 [15]: > 10 µM
